Reference: US8835377B2, “Oral delivery of peptide pharmaceutical compositions” (UGP Therapeutics, Inc., priority 2004, dated 2014)

Test: Pharmacokinetics after oral capsules (sCT plus Dmt-DALDA with citric acid and lauroyl carnitine), non-enteric coated or enteric coated, in fasted beagle dogs (plasma; ELISA for sCT, HPLC-MS for Dmt-DALDA)
Type: in vivo
Procedure: A second series of tests was carried out, as noted above, using beagle dogs. […] In the experiments represented in FIGS. 2A and 2B, size 00 […] capsules were each filled with 758 mg of a powdered blend consisting of citric acid (643 mg), lauroyl carnitine (66 mg), talc (33 mg), salmon calcitonin (sCT) (13 mg) and Dmt-DALDA (2.4 mg). Half of the capsules were coated with an enteric coating solution of L30D-55, while the remaining 50% of the capsules were not coated. Four fasted dogs were each given 1 uncoated capsule, and 2 weeks later they were each given an enteric coated capsule. After administration of each capsule, samples of blood were taken at 15 minute intervals from an indwelling catheter for up to 4 hours. The blood samples were centrifuged and the resulting plasma supernatants were stored frozen at −20° C. The plasma samples were subsequently analyzed for sCT by a direct ELISA, and for Dmt-DALDA by HPLC-mass spectrometry performed as set forth in Wan, H. and Desiderio, D., Quantitation of [DMT^1] DALDA in ovine plasma by on-line liquid chromatography/quadrapole time-of-flight mass spectrometry, Rapid Communications in Mass Spectrometry, 2003; 17, 538-546, the contents of which are incorporated herein by reference.
The results summarized in FIGS. 2A and 2B as plasma peptide concentration normalized to a 1 mg dose as a function of time relative to the average Tmax, (i.e., the time at which the maximum amount of peptide was detected) indicate that both peptides, i.e., sCT and Dmt-DALDA, were detected in dogs given uncoated or enteric coated capsules. […] Table DI (below) sets forth the values upon which the curves in FIGS. 2A and 2B are based. The results are summarized in the tables as plasma peptide concentration normalized to a 1 mg dose as a function of time. Table III, moreover, provides the standard deviations for the data obtained regarding each of the test dogs, which standard deviations are also indicated in FIGS. 2A and 2B.
Table IV (below) summarizes the pharmacokinetic parameters in dogs of orally administered sCT and Dmt-DALDA when administered in non-enteric coated versus enteric coated capsules. Peptide was not detected from 1 dog in each group due to (a) Dog 3 vomiting the uncoated capsule and (b) delayed gastric emptying in Dog 2 provided with an enteric coated capsule. Cmax and AUC are as defined with regard to Table H above.

CC(C)C[C@H](NC(=O)[C@H](CCCCN)NC(=O)CNC(=O)[C@H](CC(C)C)NC(=O)[C@@H](NC(=O)[C@@H]1CSSC[C@H](N)C(=O)N[C@@H](CO)C(=O)N[C@@H](CC(N)=O)C(=O)N[C@@H](CC(C)C)C(=O)N[C@@H](CO)C(=O)N[C@@H]([C@@H](C)O)C(=O)N1)C(C)C)C(=O)N[C@@H](CO)C(=O)N[C@@H](CCC(N)=O)C(=O)N[C@@H](CCC(=O)O)C(=O)N[C@@H](CC(C)C)C(=O)N[C@@H](Cc1c[nH]cn1)C(=O)N[C@@H](CCCCN)C(=O)N[C@@H](CC(C)C)C(=O)N[C@@H](CCC(N)=O)C(=O)N[C@H](C(=O)N[C@@H](Cc1ccc(O)cc1)C(=O)N1CCC[C@H]1C(=O)N[C@@H](CCCNC(=N)N)C(=O)N[C@H](C(=O)N[C@@H](CC(N)=O)C(=O)N[C@H](C(=O)NCC(=O)N[C@@H](CO)C(=O)NCC(=O)N[C@H](C(=O)N1CCC[C@H]1C(N)=O)[C@@H](C)O)[C@@H](C)O)[C@@H](C)O)[C@@H](C)O [sCT, salmon calcitonin]
plasma peptide concentration normalized to a 1 mg dose (enteric coated capsule, Dog 3, 75 min): 0 pg/mL | plasma peptide concentration normalized to a 1 mg dose (enteric coated capsule, Dog 3, 90 min): 0 pg/mL | plasma peptide concentration normalized to a 1 mg dose (enteric coated capsule, Dog 3, 105 min): 0 pg/mL | plasma peptide concentration normalized to a 1 mg dose (enteric coated capsule, Dog 3, 120 min): 0 pg/mL | plasma peptide concentration normalized to a 1 mg dose (enteric coated capsule, Dog 3, 135 min): 13219 pg/mL | plasma peptide concentration normalized to a 1 mg dose (enteric coated capsule, Dog 3, 150 min): 10151 pg/mL | plasma peptide concentration normalized to a 1 mg dose (enteric coated capsule, Dog 3, 165 min): 4410 pg/mL | plasma peptide concentration normalized to a 1 mg dose (enteric coated capsule, Dog 3, 180 min): 2983 pg/mL | plasma peptide concentration normalized to a 1 mg dose (enteric coated capsule, Dog 3, 195 min): 1825 pg/mL | plasma peptide concentration normalized to a 1 mg dose (enteric coated capsule, Dog 4, 0 min): 0 pg/mL | plasma peptide concentration normalized to a 1 mg dose (enteric coated capsule, Dog 4, 15 min): 0 pg/mL | plasma peptide concentration normalized to a 1 mg dose (enteric coated capsule, Dog 4, 30 min): 0 pg/mL | plasma peptide concentration normalized to a 1 mg dose (enteric coated capsule, Dog 4, 45 min): 0 pg/mL | plasma peptide concentration normalized to a 1 mg dose (enteric coated capsule, Dog 4, 60 min): 0 pg/mL | plasma peptide concentration normalized to a 1 mg dose (enteric coated capsule, Dog 4, 75 min): 0 pg/mL | plasma peptide concentration normalized to a 1 mg dose (enteric coated capsule, Dog 4, 90 min): 0 pg/mL | plasma peptide concentration normalized to a 1 mg dose (enteric coated capsule, Dog 4, 105 min): 13111 pg/mL | plasma peptide concentration normalized to a 1 mg dose (enteric coated capsule, Dog 4, 120 min): 13147 pg/mL | plasma peptide concentration normalized to a 1 mg dose (enteric coated capsule, Dog 4, 135 min): 6841 pg/mL | plasma peptide concentration normalized to a 1 mg dose (enteric coated capsule, Dog 4, 150 min): 4251 pg/mL | plasma peptide concentration normalized to a 1 mg dose (enteric coated capsule, Dog 4, 165 min): 2448 pg/mL | plasma peptide concentration normalized to a 1 mg dose (enteric coated capsule, Dog 4, 180 min): 1468 pg/mL | plasma peptide concentration normalized to a 1 mg dose (enteric coated capsule, Dog 4, 195 min): 1192 pg/mL | plasma peptide concentration normalized to a 1 mg dose (non-enteric coated capsule, Dog 1, 45 min): 1343 pg/mL | plasma peptide concentration normalized to a 1 mg dose (non-enteric coated capsule, Dog 1, 60 min): 561 pg/mL | plasma peptide concentration normalized to a 1 mg dose (non-enteric coated capsule, Dog 1, 75 min): 273 pg/mL | plasma peptide concentration normalized to a 1 mg dose (non-enteric coated capsule, Dog 1, 90 min): 140 pg/mL | plasma peptide concentration normalized to a 1 mg dose (non-enteric coated capsule, Dog 1, 105 min): 121 pg/mL | plasma peptide concentration normalized to a 1 mg dose (non-enteric coated capsule, Dog 1, 120 min): 89 pg/mL | plasma peptide concentration normalized to a 1 mg dose (non-enteric coated capsule, Dog 1, 135 min): 51 pg/mL | plasma peptide concentration normalized to a 1 mg dose (non-enteric coated capsule, Dog 1, 150 min): 31 pg/mL | plasma peptide concentration normalized to a 1 mg dose (non-enteric coated capsule, Dog 1, 165 min): 23 pg/mL | plasma peptide concentration normalized to a 1 mg dose (non-enteric coated capsule, Dog 1, 180 min): 16 pg/mL | plasma peptide concentration normalized to a 1 mg dose (non-enteric coated capsule, Dog 1, 195 min): 11 pg/mL | plasma peptide concentration normalized to a 1 mg dose (non-enteric coated capsule, Dog 1, 210 min): 0 pg/mL | plasma peptide concentration normalized to a 1 mg dose (non-enteric coated capsule, Dog 1, 225 min): 0 pg/mL | plasma peptide concentration normalized to a 1 mg dose (non-enteric coated capsule, Dog 1, 240 min): 0 pg/mL | plasma peptide concentration normalized to a 1 mg dose (non-enteric coated capsule, Dog 2, 45 min): 2151 pg/mL | plasma peptide concentration normalized to a 1 mg dose (non-enteric coated capsule, Dog 2, 60 min): 897 pg/mL | plasma peptide concentration normalized to a 1 mg dose (non-enteric coated capsule, Dog 2, 75 min): 229 pg/mL | plasma peptide concentration normalized to a 1 mg dose (non-enteric coated capsule, Dog 2, 90 min): 182 pg/mL | plasma peptide concentration normalized to a 1 mg dose (non-enteric coated capsule, Dog 2, 105 min): 122 pg/mL | plasma peptide concentration normalized to a 1 mg dose (non-enteric coated capsule, Dog 2, 120 min): 69 pg/mL | plasma peptide concentration normalized to a 1 mg dose (non-enteric coated capsule, Dog 2, 135 min): 44 pg/mL | plasma peptide concentration normalized to a 1 mg dose (non-enteric coated capsule, Dog 2, 150 min): 39 pg/mL | plasma peptide concentration normalized to a 1 mg dose (non-enteric coated capsule, Dog 2, 165 min): 22 pg/mL | plasma peptide concentration normalized to a 1 mg dose (non-enteric coated capsule, Dog 2, 180 min): 15 pg/mL | plasma peptide concentration normalized to a 1 mg dose (non-enteric coated capsule, Dog 2, 195 min): 0 pg/mL | plasma peptide concentration normalized to a 1 mg dose (non-enteric coated capsule, Dog 2, 210 min): 0 pg/mL | plasma peptide concentration normalized to a 1 mg dose (non-enteric coated capsule, Dog 2, 225 min): 0 pg/mL | plasma peptide concentration normalized to a 1 mg dose (non-enteric coated capsule, Dog 2, 240 min): 0 pg/mL | plasma peptide concentration normalized to a 1 mg dose (non-enteric coated capsule, Dog 4, 45 min): 278 pg/mL | plasma peptide concentration normalized to a 1 mg dose (non-enteric coated capsule, Dog 4, 60 min): 163 pg/mL | plasma peptide concentration normalized to a 1 mg dose (non-enteric coated capsule, Dog 4, 75 min): 101 pg/mL | plasma peptide concentration normalized to a 1 mg dose (non-enteric coated capsule, Dog 4, 90 min): 69 pg/mL | plasma peptide concentration normalized to a 1 mg dose (non-enteric coated capsule, Dog 4, 105 min): 45 pg/mL | plasma peptide concentration normalized to a 1 mg dose (non-enteric coated capsule, Dog 4, 120 min): 26 pg/mL | plasma peptide concentration normalized to a 1 mg dose (non-enteric coated capsule, Dog 4, 135 min): 16 pg/mL | plasma peptide concentration normalized to a 1 mg dose (non-enteric coated capsule, Dog 4, 150 min): 12 pg/mL | plasma peptide concentration normalized to a 1 mg dose (non-enteric coated capsule, Dog 4, 165 min): 0 pg/mL | plasma peptide concentration normalized to a 1 mg dose (non-enteric coated capsule, Dog 4, 180 min): 0 pg/mL | plasma peptide concentration normalized to a 1 mg dose (non-enteric coated capsule, Dog 4, 195 min): 0 pg/mL | plasma peptide concentration normalized to a 1 mg dose (non-enteric coated capsule, Dog 4, 210 min): 0 pg/mL | plasma peptide concentration normalized to a 1 mg dose (non-enteric coated capsule, Dog 4, 225 min): 0 pg/mL | plasma peptide concentration normalized to a 1 mg dose (non-enteric coated capsule, Dog 4, 240 min): 0 pg/mL
